Measured values published in paper PMC12957839, “Antiviral activity and mechanism of purine morpholine nucleoside analogues incorporating a sulfonamide fragment” (Journal of Advanced Research, 2025).
Converted amounts (≈) assume the structure as drawn. Read-outs that look alike come from different tables or passages of the source.

Experiments:
[1] = tested on: PMMoV; assay: Antiviral activity assay against PMMoV, curative activity; format: in vivo, Pepper mild mottle virus (PMMoV); parameters: Curative activity: concentration or dose not given beside the values; details: for EC50: Pepper mild mottle virus, read-out: EC50 of curative activity
Protocol: (§1) Virions were isolated and extracted from leaves of N. benthamiana infected with PMMoV referring to the method recorded in the literature. And the inhibiting activities of C1–C38 against PMMoV were assessed with reference to the literature as well [26, 34].

[2] = tested on: PMMoV; assay: Antiviral activity assay against PMMoV, protective activity; format: in vivo, Pepper mild mottle virus (PMMoV); parameters: Protective activity: concentration or dose not given beside the values; details: for EC50: Pepper mild mottle virus, read-out: EC50 of protective activity
Protocol: as §1

[3] = tested on: PMMoV; assay: Antiviral activity assay against PMMoV, inactivating activity; format: in vivo, Pepper mild mottle virus (PMMoV); details: for pest or weed control at 500 µg/mL / EC50: Pepper mild mottle virus; for pest or weed control at 500 µg/mL: read-out: Inactivating activity; for EC50: read-out: EC50 of inactivating activity
Protocol: as §1

[4] = target: T1, PMMoV CP (Pepper mild mottle virus, UniProt P69509); assay: Microscale thermophoresis (MST) binding affinity with PMMoV CP
Protocol: The binding affinities of compounds with PMMoV CP were analyzed by MST based on the procedures delineated in the literature.

[5] = target: T1, PMMoV CP; assay: ABPP probe capture of PMMoV CP (Western blot), concentration dependence and competitive inhibition; format: binding; details: for capture of the 17 kDa protein from PMMoV: Western blot, identical concentration, Fig. S132; for capture of PMMoV CP: same concentration of 100 µM; for capture of PMMoV CP / labeling of PMMoV CP by probe: Fig. 1B
From the text: ABPP technology utilized its unique chemical probe strategy to selectively capture target proteins and was regarded as a well-established approach for discovering target proteins.

[6] = tested on: PMMoV CP and I3QHX5; assay: BiFC interaction of PMMoV CP and PMMoV CP^Y13A with I3QHX5 before and after application of C1; format: cell-based, N. benthamiana; details: addition of C1, 30, 36 and 42 hpi, Fig. 6A
Protocol: Designed primers to construct vectors of LCA and BiFC via homologous recombination. Extracted plasmids and waited for sequencing confirmation before transforming them into GV3101 (pU19). A. tumefaciens transient transformation solution (200 μM acetosyringone, 10 mM MgCl2, and 10 mM MES, pH = 5.6) was prepared to resuspend the organisms with a final OD600 of 1.0, then mixed them with equal OD600 and volume before being infiltrated into N. benthamiana of the same growth stage. […]

[7] = target: PMMoV CP (Octet, in vitro) (pepper mild mottle virus); assay: BLI; Octet, in vitro; which partner was immobilised is not stated
[8] = against PMMoV, average of three replicates, ± standard deviation
[9] = against PMMoV, at 500 µg/mL, average of three replicates, ± standard deviation

| Compound | EC50 [1, 8] | Curative activity [1, 8] | EC50 [2, 8] | Protective activity [2, 8] | pest or weed control at 500 µg/mL [3, 9] | EC50 [3, 8] | also measured |
| --- | --- | --- | --- | --- | --- | --- | --- |
| CC(=O)OCC1OC(n2cnc3c(N4CCOCC4)ncnc32)C(NS(=O)(=O)c2ccc(C)cc2)C(OC(C)=O)C1OC(C)=O (centres unmarked) [C24] | 30.7 ± 1.2 µg/mL (≈ 47.5 µM) | 72.5 ± 2.2% | 919 ± 10.2 µg/mL (≈ 1420 µM) | 40.8 ± 3.5% | 65.1 ± 4.2% | 145 ± 4.7 µg/mL (≈ 224 µM) | Kd [4]: 109 µM |
| CC(=O)OCC1OC(n2cnc3c(N4CCOCC4)ncnc32)C(NS(=O)(=O)c2ccc([N+](=O)[O-])cc2)C(OC(C)=O)C1OC(C)=O (centres unmarked) [C1] | 17 ± 3.9 µg/mL (≈ 25.1 µM) | 73.7 ± 5.2% | 86.9 ± 8.8 µg/mL (≈ 128 µM) | 64.3 ± 2.8% | 76.4% | 37 ± 4.4 µg/mL (≈ 54.6 µM) | Inactivating activity [3, 9]: 76.4 ± 2.6%; Kd [4]: 1.5 µM; capture of the 17 kDa protein from PMMoV [5]: neither C1 nor DMSO exhibited such a capacity; competitive inhibition of C2 labeling of PMMoV CP ([5]; increasing concentrations of C1, Fig. 1C): competitively inhibited the interaction of C2 with PMMoV CP; capture of PMMoV CP [5]: could not; effect on interaction of PMMoV CP and PMMoV CP^Y13A with I3QHX5 [6]: affected the interaction |
| C#CCN1CCN(c2ncnc3c2ncn3C2OC(COC(C)=O)C(OC(C)=O)C(OC(C)=O)C2NS(=O)(=O)c2ccc([N+](=O)[O-])cc2)CC1 (centres unmarked) [C2] | 66.6 ± 4.5 µg/mL (≈ 93.2 µM) | 67.3 ± 4.3% | 64.5 ± 4.5 µg/mL (≈ 90.2 µM) | 65.9 ± 3.0% | 67.4 ± 3.9% | 40.7 ± 2.3 µg/mL (≈ 56.9 µM) | capture of the 17 kDa protein from PMMoV [5]: capable of capturing the protein with a molecular weight of 17 kDa; labeling of PMMoV CP by probe ([5]; concentrations of 10–50 µM): successfully labeled protein; labeling of PMMoV CP by probe ([5]; concentrations reduced to 5–1 µM): failed to do so; capture of PMMoV CP [5]: could capture PMMoV CP |
| CC(=O)OCC1OC(n2cnc3c(N4CCOCC4)nc(Cl)nc32)C(NS(=O)(=O)c2ccc(C)cc2)C(OC(C)=O)C1OC(C)=O (centres unmarked) [C25] | 167 ± 5.2 µg/mL (≈ 245 µM) | 59.0 ± 3.5% | 345 ± 11.3 µg/mL (≈ 507 µM) | 52.3 ± 1.1% | 46.9 ± 1.8% | 573 ± 10.9 µg/mL (≈ 841 µM) | Kd [4]: 264 ± 25.1 µM |
| CC(=O)OCC1OC(n2cnc3c(N4CCOCC4)nc(Cl)nc32)C(NS(=O)(=O)c2ccc(C#N)cc2)C(OC(C)=O)C1OC(C)=O (centres unmarked) [C8] | 64.6 ± 4.6 µg/mL (≈ 93.3 µM) | 69.6 ± 1.3% | 1040 ± 19.4 µg/mL (≈ 1510 µM) | 44.3 ± 1.8% | 56.6 ± 4% | 222 ± 4.8 µg/mL (≈ 321 µM) |  |
| CC(=O)OCC1OC(n2cnc3c(N4CCOCC4)nc(Cl)nc32)C(NS(=O)(=O)c2c(C)cc(C)cc2C)C(OC(C)=O)C1OC(C)=O (centres unmarked) [C23] | 11.3 ± 3.3 µg/mL (≈ 15.9 µM) | 69.0 ± 3.5% | 145 ± 7.7 µg/mL (≈ 204 µM) | 57.4 ± 1.6% | 55.4 ± 2.6% | 240 ± 17.8 µg/mL (≈ 338 µM) |  |
| CNCC(=O)N[C@@H](CO)C(=O)N[C@H]1[C@H](O)[C@@H](O)[C@H](n2ccc(N)nc2=O)O[C@@H]1C(N)=O [Ningnanmycin, reference compound] |  | 54.5 ± 3.3% |  | 60.8 ± 3.1% |  |  | EC50 [1]: 258 ± 7.6 µg/mL (≈ 581 µM); EC50 [2]: 285 ± 5.3 µg/mL (≈ 644 µM); EC50 [3]: 67.3 ± 3.5 µg/mL (≈ 152 µM); pest or weed control at 500 µg/mL [3]: 71.2 ± 6.1% |
| CC(=O)OCC1OC(n2cnc3c(N4CCOCC4)ncnc32)C(NS(=O)(=O)c2cccc(Cl)c2)C(OC(C)=O)C1OC(C)=O (centres unmarked) [C10] | 22.2 ± 3.4 µg/mL (≈ 33.3 µM) | 62.1 ± 5.8% | 17.8 ± 2.1 µg/mL (≈ 26.7 µM) | 67.0 ± 4.3% | 60.5% | 16.3 ± 1.9 µg/mL (≈ 24.4 µM) | Inactivating activity [3, 9]: 60.5 ± 1.8% |
| CC(=O)OCC1OC(n2cnc3c(N4CCOCC4)ncnc32)C(NS(=O)(=O)c2ccc(OC(F)(F)F)cc2)C(OC(C)=O)C1OC(C)=O (centres unmarked) [C33] | 32 ± 1 µg/mL (≈ 44.7 µM) | 71.5 ± 4.4% | 305 ± 12.2 µg/mL (≈ 426 µM) | 53.0 ± 3.7% | 54.4 ± 3.3% | 176 ± 11.3 µg/mL (≈ 246 µM) |  |
| COc1ccc(S(=O)(=O)NC2C(OC(C)=O)C(OC(C)=O)C(COC(C)=O)OC2n2cnc3c(N4CCOCC4)nc(N)nc32)cc1 (centres unmarked) [C14] | 100 ± 8.9 µg/mL (≈ 148 µM) | 53.6 ± 2.4% | 926 ± 11.4 µg/mL (≈ 1370 µM) | 38.3 ± 4.4% | 38.5 ± 2% | 4507 ± 24.2 µg/mL (≈ 6650 µM) |  |
| CC(=O)OCC1OC(n2cnc3c(N4CCOCC4)ncnc32)C(NS(=O)(=O)c2c(C)cc(C)cc2C)C(OC(C)=O)C1OC(C)=O (centres unmarked) [C21] | 61.6 ± 5.3 µg/mL (≈ 91.3 µM) | 66.9 ± 1.8% | 74 ± 5.1 µg/mL (≈ 110 µM) | 60.7 ± 2.5% | 68.7 ± 4.5% | 83.2 ± 3.7 µg/mL (≈ 123 µM) |  |
| CC(=O)OCC1OC(n2cnc3c(N4CCOCC4)nc(Cl)nc32)C(NS(=O)(=O)c2ccc(F)cc2)C(OC(C)=O)C1OC(C)=O (centres unmarked) [C32] | 23.8 ± 5.5 µg/mL (≈ 34.7 µM) | 68.0 ± 2.7% | 28.7 ± 4.4 µg/mL (≈ 41.9 µM) | 68.9 ± 2.0% | 67.9 ± 5.1% | 38 ± 4.4 µg/mL (≈ 55.5 µM) |  |
| COc1ccc(S(=O)(=O)NC2C(OC(C)=O)C(OC(C)=O)C(COC(C)=O)OC2n2cnc3c(N4CCOCC4)ncnc32)cc1 (centres unmarked) [C12] | 53 ± 2.1 µg/mL (≈ 80 µM) | 63.5 ± 2.6% | 134 ± 7.4 µg/mL (≈ 203 µM) | 65.6 ± 4.7% | 71.5 ± 5% | 43.1 ± 1.1 µg/mL (≈ 65 µM) |  |
| CC(=O)OCC1OC(n2cnc3c(N4CCOCC4)ncnc32)C(NS(=O)(=O)c2ccc(C(F)(F)F)cc2)C(OC(C)=O)C1OC(C)=O (centres unmarked) [C26] | 45.1 ± 4.7 µg/mL (≈ 64.4 µM) | 67.6 ± 2.5% | 788 ± 12.8 µg/mL (≈ 1120 µM) | 44.5 ± 1.6% | 45.5 ± 2.6% | 632 ± 15.2 µg/mL (≈ 902 µM) |  |
| O=[N+]([O-])c1ccc(S(=O)(=O)NC2C(O)C(O)C(CO)OC2n2cnc3c(N4CCOCC4)ncnc32)cc1 (centres unmarked) [C37] | 2000 ± 21.8 µg/mL (≈ 3620 µM) | 36.2 ± 4.6% | 344 ± 15.8 µg/mL (≈ 623 µM) | 50.6 ± 2.1% | 57.8 ± 3.4% | 280 ± 13.9 µg/mL (≈ 507 µM) |  |
| CC(=O)OCC1OC(n2cnc3c(N4CCOCC4)nc(F)nc32)C(NS(=O)(=O)c2ccc([N+](=O)[O-])cc2)C(OC(C)=O)C1OC(C)=O (centres unmarked) [C3] | 11.5 ± 4.4 µg/mL (≈ 16.5 µM) | 67.0 ± 3.6% | 388 ± 16.6 µg/mL (≈ 557 µM) | 57.5 ± 4.3% | 68.9 ± 4.9% | 198 ± 16.1 µg/mL (≈ 285 µM) |  |
| I3QHX5 (Octet, in vitro) (from UniProt I3QHX5 1-485) (natural protein) |  |  |  |  |  |  | Kd [7]: 13 nM |
| CC(=O)OCC1OC(n2cnc3c(N4CCOCC4)nc(N)nc32)C(NS(=O)(=O)c2cccc(Cl)c2)C(OC(C)=O)C1OC(C)=O (centres unmarked) [C11] | 372 ± 18.4 µg/mL (≈ 545 µM) | 51.8 ± 1.0% | 225 ± 11.9 µg/mL (≈ 329 µM) | 58.8 ± 3.1% | 51.8 ± 2.1% | 497.1 ± 3 µg/mL (≈ 729 µM) |  |
